# Test system: A375 multi-cell spheroids with HUVEC/MSC, viability
# Assay: Anticancer human tumor A375 cell line growth inhibition [GQUAD];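 further: spheroids exposed to compounds for seven days before readout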
# Details: for IC50: curve of first compound; for viability, T/C: stronger effect = lower value
# How it was run: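 Tumor cells were grown as complex spheroids with HUVEC endothelial cells and mesenchymal stem cells as stroma. G-quadruplex stabilizers were combined with targeted agents over half-log dilutions from near the clinical Cmax, or from 10 microM.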
# [1] = second compound 0.0316 µM, first compound 0.0316 µM
# [2] = second compound 0.0316 µM, first compound 0.1 µM
# [3] = second compound 0.0316 µM, first compound 0.316 µM
# [4] = second compound 0.0316 µM, first compound 1 µM
# [5] = second compound 0.0316 µM, first compound 3.16 µM
# [6] = second compound 0.0316 µM, first compound 10 µM
# [7] = second compound 0.1 µM, first compound 0.0316 µM
# [8] = second compound 0.1 µM, first compound 0.1 µM
# [9] = second compound 0.1 µM, first compound 0.316 µM
# [10] = second compound 0.1 µM, first compound 1 µM
# [11] = second compound 0.1 µM, first compound 3.16 µM
# [12] = second compound 0.1 µM, first compound 10 µM
# [13] = second compound 0.316 µM, first compound 0.0316 µM
# [14] = second compound 0.316 µM, first compound 0.1 µM
# [15] = second compound 0.316 µM, first compound 0.316 µM
# [16] = second compound 0.316 µM, first compound 1 µM
# [17] = second compound 0.316 µM, first compound 3.16 µM
# [18] = second compound 0.316 µM, first compound 10 µM
# [19] = second compound 1 µM, first compound 0.0316 µM
# [20] = second compound 1 µM, first compound 0.1 µM
# [21] = second compound 1 µM, first compound 0.316 µM
# [22] = second compound 1 µM, first compound 1 µM
# [23] = second compound 1 µM, first compound 3.16 µM
# [24] = second compound 1 µM, first compound 10 µM
# [25] = second compound 3.16 µM, first compound 0.0316 µM
# [26] = second compound 3.16 µM, first compound 0.1 µM
# [27] = second compound 3.16 µM, first compound 0.316 µM
# [28] = second compound 3.16 µM, first compound 1 µM
# [29] = second compound 3.16 µM, first compound 3.16 µM
# [30] = second compound 3.16 µM, first compound 10 µM
# [31] = second compound 10 µM, first compound 0.0316 µM
# [32] = second compound 10 µM, first compound 0.1 µM
# [33] = second compound 10 µM, first compound 0.316 µM
# [34] = second compound 10 µM, first compound 1 µM
# [35] = second compound 10 µM, first compound 3.16 µM
# [36] = second compound 10 µM, first compound 10 µM
structure (smiles),measurement,setting,value
C=CCn1c(=O)c2cnc(Nc3ccc(N4CCN(C)CC4)cc3)nc2n1-c1cccc(C(C)(C)O)n1 + Cc1[nH]c2ccc(F)cc2c1-c1nc2c3cccnc3c3ncccc3c2[nH]1,IC50,second compound 0.0316 µM,1040 nM
same,IC50,second compound 0.1 µM,1100 nM
same,IC50,second compound 0.316 µM,968 nM
same,IC50,second compound 1 µM,703 nM
same,IC50,second compound 3.16 µM,72.2 nM
same,IC50,second compound 10 µM,149 nM
same,"viability, T/C",[1],108%
same,"viability, T/C",[2],94.2%
same,"viability, T/C",[3],93.6%
same,"viability, T/C",[4],51.6%
same,"viability, T/C",[5],11.5%
same,"viability, T/C",[6],4.8%
same,"viability, T/C",[7],106%
same,"viability, T/C",[8],94.2%
same,"viability, T/C",[9],94.2%
same,"viability, T/C",[10],52.7%
same,"viability, T/C",[11],15.4%
same,"viability, T/C",[12],6.47%
same,"viability, T/C",[13],104%
same,"viability, T/C",[14],103%
same,"viability, T/C",[15],93.3%
same,"viability, T/C",[16],48.8%
same,"viability, T/C",[17],12.4%
same,"viability, T/C",[18],6.56%
same,"viability, T/C",[19],101%
same,"viability, T/C",[20],104%
same,"viability, T/C",[21],80%
same,"viability, T/C",[22],36.8%
same,"viability, T/C",[23],12.3%
same,"viability, T/C",[24],8.03%
same,"viability, T/C",[25],59.1%
same,"viability, T/C",[26],45.1%
same,"viability, T/C",[27],33.3%
same,"viability, T/C",[28],19.5%
same,"viability, T/C",[29],7.29%
same,"viability, T/C",[30],5.68%
same,"viability, T/C",[31],77.5%
same,"viability, T/C",[32],63.9%
same,"viability, T/C",[33],23.9%
same,"viability, T/C",[34],20.2%
same,"viability, T/C",[35],8.19%
same,"viability, T/C",[36],5.93%
CC(C)(O)C1CCC(Nc2ccc3ncc(-c4cccc(C(F)(F)F)c4)n3n2)CC1 (centres undefined) + Cc1[nH]c2ccc(F)cc2c1-c1nc2c3cccnc3c3ncccc3c2[nH]1,IC50,second compound 0.0316 µM,> 10000 nM
same,IC50,second compound 0.1 µM,> 10000 nM
same,IC50,second compound 0.316 µM,> 10000 nM
same,IC50,second compound 1 µM,> 10000 nM
same,IC50,second compound 3.16 µM,66.7 nM
same,IC50,second compound 10 µM,845 nM
same,"viability, T/C",[1],99.5%
same,"viability, T/C",[2],100%
same,"viability, T/C",[3],96.5%
same,"viability, T/C",[4],112%
same,"viability, T/C",[5],94.4%
same,"viability, T/C",[6],92.1%
same,"viability, T/C",[7],103%
same,"viability, T/C",[8],110%
same,"viability, T/C",[9],97.3%
same,"viability, T/C",[10],113%
same,"viability, T/C",[11],84.7%
same,"viability, T/C",[12],87.6%
same,"viability, T/C",[13],98.5%
same,"viability, T/C",[14],102%
same,"viability, T/C",[15],105%
same,"viability, T/C",[16],100%
same,"viability, T/C",[17],77.6%
same,"viability, T/C",[18],86.1%
same,"viability, T/C",[19],106%
same,"viability, T/C",[20],104%
same,"viability, T/C",[21],101%
same,"viability, T/C",[22],93.6%
same,"viability, T/C",[23],47.4%
same,"viability, T/C",[24],73.7%
same,"viability, T/C",[25],49.7%
same,"viability, T/C",[26],52.3%
same,"viability, T/C",[27],39%
same,"viability, T/C",[28],30.2%
same,"viability, T/C",[29],10.4%
same,"viability, T/C",[30],20.4%
same,"viability, T/C",[31],76.7%
same,"viability, T/C",[32],82.9%
same,"viability, T/C",[33],72.3%
same,"viability, T/C",[34],46.9%
same,"viability, T/C",[35],16.2%
same,"viability, T/C",[36],42.3%
